Legend:
[1] = system: Glomerella lagenarium (Colletotrichum lagenarium); assay: Glomerella lagenarium (Colletotrichum lagenarium) / liquid culture (anthracnose); assay type: cell-based; conditions: Colletotrichum orbiculare, liquid culture (PDB), 24° C., growth inhibition photometrically 3-4 days after application, read-out: control of Glomerella lagenarium compared to untreated control
Procedure: (§1) Example B-3: Glomerella lagenarium (Colletotrichum lagenarium)/Liquid Culture (Anthracnose) Conidia of the fungus from cryogenic storage are directly mixed into nutrient broth (PDB potato dextrose broth). After placing a (DMSO) solution of test compound into a microtiter plate (96-well format), the nutrient broth containing the fungal spores is added. The test plates are incubated at 24° C. and the inhibition of growth is measured photometrically 3-4 days after application.

[2] = system: Monographella nivalis (Microdochium nivale); assay: Monographella nivalis (Microdochium nivale) / liquid culture (foot rot cereals); assay type: cell-based; conditions: liquid culture (PDB), 24° C., growth inhibition photometrically 4-5 days after application, read-out: control of Monographella nivalis compared to untreated control
Procedure: as §1, with “B-7: Monographella Nivalis (Microdochium nivale)/Liquid” for “B-3: Glomerella lagenarium (Colletotrichum lagenarium)/Liquid”, “(Foot Rot Cereals)” for “(Anthracnose)”, “determined” for “measured”, “4-5” for “3-4”

[3] = system: Mycosphaerella graminicola (Septoria tritici); assay: Mycosphaerella graminicola (Septoria tritici) / liquid culture (Septoria blotch); assay type: cell-based; conditions: Zymoseptoria tritici, liquid culture (PDB), 24° C., growth inhibition photometrically 4-5 days after application, read-out: control of Mycosphaerella graminicola compared to untreated control
Procedure: as §1, with “B-12: Mycosphaerella graminicola (Septoria tritici)/Liquid” for “B-3: Glomerella lagenarium (Colletotrichum lagenarium)/Liquid”, “(Septoria Blotch)” for “(Anthracnose)”, “determined” for “measured”, “4-5” for “3-4”

[4] = system: Magnaporthe grisea (Pyricularia oryzae); assay type: in vivo; conditions: 200 ppm; rice leaf segments cv. Ballila; inoculated 2 days after application; assessed 5-7 days after application

SMILES	inhibition of growth at 20 ppm [1] [%]	inhibition of growth at 20 ppm [2] [%]	inhibition of growth at 20 ppm [3] [%]	control of Magnaporthe grisea compared to untreated control [4]
Cn1cc(C(C)(CNC(=O)c2cc(-c3ccc(F)cc3F)on2)c2nc(Cl)cs2)cn1 (racemic) [Compound P-4, N-[2-(4-chlorothiazol-2-yl)-2-(1-methylpyrazol-4-yl)propyl]-5-(2,4-difluorophenyl)isoxazole-3-carboxamide]	≥ 80	≥ 80	≥ 80	–
Cn1cc(C(C)(CNC(=O)c2cc(-c3ccc(F)cc3F)on2)c2nc(Cl)cs2)cn1 (single isomer, unassigned) [Compound P-5, N-[2-(4-chlorothiazol-2-yl)-2-(1-methylpyrazol-4-yl)propyl]-5-(2,4-difluorophenyl) isoxazole-3-carboxamide]	≥ 80	≥ 80	≥ 80	–
Cn1cc(C(C)(CNC(=O)c2cc(-c3ccc(F)cc3F)on2)c2ccn(C)n2)cn1 (stereo not shown) [Compound P-1, 5-(2,4-difluorophenyl)-N-[2-(1-methylpyrazol-3-yl)-2-(1-methylpyrazol-4-yl)propyl]isoxazole-3-carboxamide]	≥ 80	≥ 80	≥ 80	at least 80%
Cn1cc(C(C)(CNC(=O)c2cc(-c3ccc(F)cc3F)on2)c2nccs2)cn1 (stereo not shown) [Compound P-2, 5-(2,4-difluorophenyl)-N-[2-(1-methylpyrazol-4-yl)-2-thiazol-2-yl-propyl]isoxazole-3-carboxamide]	≥ 80	≥ 80	≥ 80	–
Cn1cc(C(C)(CNC(=O)c2cc(-c3ccc(F)cc3F)on2)c2nc(Cl)c(Cl)s2)cn1 (stereo not shown) [Compound P-3, N-[2-(4,5-dichlorothiazol-2-yl)-2-(1-methylpyrazol-4-yl)propyl]-5-(2,4-difluorophenyl)isoxazole-3-carboxamide]	≥ 80	≥ 80	≥ 80	–
Cn1cc(C(C)(CNC(=O)c2cc(-c3ccc(F)cc3F)on2)c2ncc(Br)s2)cn1 (stereo not shown) [Compound P-7, N-[2-(5-bromothiazol-2-yl)-2-(1-methylpyrazol-4-yl)propyl]-5-(2,4-difluorophenyl) isoxazole-3-carboxamide]	≥ 80	≥ 80	≥ 80	–
Cn1cc(C(C)(CNC(=O)c2cc(-c3ccc(F)cc3F)on2)c2nc(Br)cs2)cn1 (stereo not shown) [Compound P-8, N-[2-(4-bromothiazol-2-yl)-2-(1-methylpyrazol-4-yl)propyl]-5-(2,4-difluorophenyl) isoxazole-3-carboxamide]	≥ 80	≥ 80	≥ 80	–
Cn1cc(C(C)(CNC(=O)c2cc(-c3ccc(F)cc3F)on2)c2nc(C(F)(F)F)cs2)cn1 (stereo not shown) [Compound P-9, 5-(2,4-difluorophenyl)-N-[2-(1-methylpyrazol-4-yl)-2-[4-(trifluoromethyl)thiazol-2-yl]propyl]isoxazole-3-carboxamide]	≥ 80	≥ 80	≥ 80	–
Cn1cc(C(C)(CNC(=O)c2cc(-c3ccc(F)cc3F)on2)c2csc(Br)n2)cn1 (stereo not shown) [Compound P-10, N-[2-(2-bromothiazol-4-yl)-2-(1-methylpyrazol-4-yl)propyl]-5-(2,4-difluorophenyl) isoxazole-3-carboxamide]	≥ 80	≥ 80	≥ 80	–
Cn1cc(C(C)(CNC(=O)c2cc(-c3ccc(F)cc3F)on2)c2nc(C3CC3)cs2)cn1 (stereo not shown) [Compound P-11, N-[2-(4-cyclopropylthiazol-2-yl)-2-(1-methylpyrazol-4-yl)propyl]-5-(2,4-difluorophenyl) isoxazole-3-carboxamide]	≥ 80	≥ 80	≥ 80	–
